Key:
[1] = target: T1, Peroxisome proliferator-activated receptor delta (Homo sapiens) (UniProt Q03181); assay: Binding affinity to PPARdelta (unknown origin) at 10 uM by TR-FRET based LanthaScreen competitive binding assay relative to control
T1 sequence (whole entry): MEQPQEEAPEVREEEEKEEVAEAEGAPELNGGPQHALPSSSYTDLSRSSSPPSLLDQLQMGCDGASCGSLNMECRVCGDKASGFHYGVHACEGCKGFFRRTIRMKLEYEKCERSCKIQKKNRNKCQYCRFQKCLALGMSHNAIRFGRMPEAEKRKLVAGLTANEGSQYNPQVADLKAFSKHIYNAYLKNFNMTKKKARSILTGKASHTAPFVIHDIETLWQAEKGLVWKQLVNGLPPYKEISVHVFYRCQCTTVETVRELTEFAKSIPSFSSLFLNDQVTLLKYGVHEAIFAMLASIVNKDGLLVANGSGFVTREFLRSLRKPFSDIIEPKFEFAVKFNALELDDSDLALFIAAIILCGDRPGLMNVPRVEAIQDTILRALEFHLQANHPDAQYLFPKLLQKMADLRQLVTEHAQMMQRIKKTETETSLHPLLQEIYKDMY

[2] = target: T2, Peroxisome proliferator-activated receptor gamma (Homo sapiens) (UniProt P37231); assay: Binding affinity to PPARgamma (unknown origin) at 10 uM by TR-FRET based LanthaScreen competitive binding assay relative to control
T2 sequence (whole entry): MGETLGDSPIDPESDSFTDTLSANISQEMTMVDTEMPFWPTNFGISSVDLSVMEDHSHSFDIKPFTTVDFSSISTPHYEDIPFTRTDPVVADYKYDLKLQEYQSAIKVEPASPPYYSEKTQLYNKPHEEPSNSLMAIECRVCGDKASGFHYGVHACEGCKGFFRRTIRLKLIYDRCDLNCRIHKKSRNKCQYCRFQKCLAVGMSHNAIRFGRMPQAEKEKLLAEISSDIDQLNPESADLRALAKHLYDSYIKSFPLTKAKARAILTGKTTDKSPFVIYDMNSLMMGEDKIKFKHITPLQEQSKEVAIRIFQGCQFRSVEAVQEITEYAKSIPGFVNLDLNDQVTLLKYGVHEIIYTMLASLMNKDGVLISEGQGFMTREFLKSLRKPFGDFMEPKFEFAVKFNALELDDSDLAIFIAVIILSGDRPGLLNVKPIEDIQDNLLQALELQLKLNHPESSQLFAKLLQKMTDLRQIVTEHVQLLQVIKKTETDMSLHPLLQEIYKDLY

[3] = target: T3, Peroxisome proliferator-activated receptor alpha (Homo sapiens) (UniProt Q07869); assay: Binding affinity to PPARalpha (unknown origin) at 10 uM by TR-FRET based LanthaScreen competitive binding assay relative to control
T3 sequence (whole entry): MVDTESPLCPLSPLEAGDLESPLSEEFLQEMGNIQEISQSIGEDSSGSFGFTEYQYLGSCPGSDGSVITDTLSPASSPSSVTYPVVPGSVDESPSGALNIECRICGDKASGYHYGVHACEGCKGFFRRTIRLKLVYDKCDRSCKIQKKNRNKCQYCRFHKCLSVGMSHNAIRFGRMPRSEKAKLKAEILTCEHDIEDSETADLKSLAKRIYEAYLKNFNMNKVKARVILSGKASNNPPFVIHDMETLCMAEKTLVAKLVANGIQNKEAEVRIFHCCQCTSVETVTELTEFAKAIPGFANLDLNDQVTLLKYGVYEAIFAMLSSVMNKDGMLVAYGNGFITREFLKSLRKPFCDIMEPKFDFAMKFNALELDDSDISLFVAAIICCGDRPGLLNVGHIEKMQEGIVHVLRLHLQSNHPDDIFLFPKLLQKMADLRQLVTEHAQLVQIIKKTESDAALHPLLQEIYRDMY

[4] = target: T4, Peroxisome proliferator-activated receptor delta (Homo sapiens, UniProt Q03181)
T4 sequence (Q03181 whole entry): T1 sequence (whole entry)
Description: Binding affinity to PPARdelta (unknown origin) by TR-FRET based LanthaScreen competitive binding assay

Mesenchymal stem cells [5] = assay: Induction of adipogenesis in human differentiated BMMSC cells assessed as fold increase in adiponectin production at 10 uM measured on 5 day in presence of IDX induction medium by ELISA; type: functional
Mesenchymal stem cells [6] = assay: cells; details: Homo sapiens, 120 h
Description: Induction of adipogenesis in human differentiated BMMSC cells assessed as increase in adiponectin secretion and measured on 5 day in presence of IDX induction medium by ELISA

Structure (SMILES) | Activity [1] | Activity [2] | Activity [3] | other results
O[C@H]1[C@@H](O)CO[C@@H]1Cn1cnc2c(NCc3cccc(F)c3)ncnc21 | 8% | 11.5% | 7.6% | –
O[C@H]1[C@@H](O)CO[C@@H]1Cn1cnc2c(NCc3cccc(Br)c3)nc(Cl)nc21 | – | 25.5% | 8.7% | Ki [4]: 3400 nM
O[C@@H]1[C@H](O)CO[C@H]1Cn1cnc2c(NCc3cccc(I)c3)nc(Cl)nc21 | – | – | 3.9% | –
O[C@H]1[C@@H](O)CO[C@@H]1Cn1cnc2c(NCc3cccc(F)c3)nc(Cl)nc21 | 29.5% | 6.3% | 14.5% | –
O[C@H]1[C@@H](O)CO[C@@H]1Cn1cnc2c(NCc3cccc(Cl)c3)nc(Cl)nc21 | – | 10.7% | 19.1% | Activity ([1]; filed as antagonist): 46.3%
O[C@H]1[C@@H](O)CO[C@@H]1Cn1cnc2c(NCc3cccc(I)c3)nc(Cl)nc21 | – | – | 17.2% | –
O[C@H]1[C@@H](O)CO[C@@H]1Cn1cnc2c(NCc3cccc(Cl)c3)ncnc21 | 21.5% | 5.9% | 3.1% | –
O[C@H]1[C@@H](O)CO[C@@H]1Cn1cnc2c(NCc3cccc(Br)c3)ncnc21 | 1.2% | 12.5% | 3.8% | –
COc1ccc(Cl)cc1C(=O)NCCc1ccc(S(=O)(=O)NC(=O)NC2CCCCC2)cc1 [GLYBURIDE] | – | – | – | fold change (FC) (Mesenchymal stem cells [5]): 6.2
CCc1ccc(CCOc2ccc(CC3SC(=O)NC3=O)cc2)nc1 (stereo unspecified) [PIOGLITAZONE] | – | – | – | EC50 (Mesenchymal stem cells [6]): 900 nM; fold change (FC) (Mesenchymal stem cells [5]): 7.8
O[C@H]1[C@@H](O)CO[C@@H]1Cn1cnc2c(NCc3cccc(I)c3)ncnc21 | 16.3% | 3.9% | 13.2% | –
